In ChEMBL document CHEMBL1139973, “Synthesis and structure-activity relationships of taxuyunnanine C derivatives as multidrug resistance modulator in MDR cancer cells” (Bioorg Med Chem Lett, 2007):

What was measured:
[1] = molecular target: T1, ATP-dependent translocase ABCB1 (Homo sapiens, UniProt P08183); experiment: Inhibition of Pgp in multidrug-resistant human 2780AD cells assessed as calcein accumulation at 0.25 ug/mL relative to control; type: cell-based; parameters: scale not given: the % may be the effect or the level left; conditions: a2780 adr
T1 sequence (P08183 whole entry): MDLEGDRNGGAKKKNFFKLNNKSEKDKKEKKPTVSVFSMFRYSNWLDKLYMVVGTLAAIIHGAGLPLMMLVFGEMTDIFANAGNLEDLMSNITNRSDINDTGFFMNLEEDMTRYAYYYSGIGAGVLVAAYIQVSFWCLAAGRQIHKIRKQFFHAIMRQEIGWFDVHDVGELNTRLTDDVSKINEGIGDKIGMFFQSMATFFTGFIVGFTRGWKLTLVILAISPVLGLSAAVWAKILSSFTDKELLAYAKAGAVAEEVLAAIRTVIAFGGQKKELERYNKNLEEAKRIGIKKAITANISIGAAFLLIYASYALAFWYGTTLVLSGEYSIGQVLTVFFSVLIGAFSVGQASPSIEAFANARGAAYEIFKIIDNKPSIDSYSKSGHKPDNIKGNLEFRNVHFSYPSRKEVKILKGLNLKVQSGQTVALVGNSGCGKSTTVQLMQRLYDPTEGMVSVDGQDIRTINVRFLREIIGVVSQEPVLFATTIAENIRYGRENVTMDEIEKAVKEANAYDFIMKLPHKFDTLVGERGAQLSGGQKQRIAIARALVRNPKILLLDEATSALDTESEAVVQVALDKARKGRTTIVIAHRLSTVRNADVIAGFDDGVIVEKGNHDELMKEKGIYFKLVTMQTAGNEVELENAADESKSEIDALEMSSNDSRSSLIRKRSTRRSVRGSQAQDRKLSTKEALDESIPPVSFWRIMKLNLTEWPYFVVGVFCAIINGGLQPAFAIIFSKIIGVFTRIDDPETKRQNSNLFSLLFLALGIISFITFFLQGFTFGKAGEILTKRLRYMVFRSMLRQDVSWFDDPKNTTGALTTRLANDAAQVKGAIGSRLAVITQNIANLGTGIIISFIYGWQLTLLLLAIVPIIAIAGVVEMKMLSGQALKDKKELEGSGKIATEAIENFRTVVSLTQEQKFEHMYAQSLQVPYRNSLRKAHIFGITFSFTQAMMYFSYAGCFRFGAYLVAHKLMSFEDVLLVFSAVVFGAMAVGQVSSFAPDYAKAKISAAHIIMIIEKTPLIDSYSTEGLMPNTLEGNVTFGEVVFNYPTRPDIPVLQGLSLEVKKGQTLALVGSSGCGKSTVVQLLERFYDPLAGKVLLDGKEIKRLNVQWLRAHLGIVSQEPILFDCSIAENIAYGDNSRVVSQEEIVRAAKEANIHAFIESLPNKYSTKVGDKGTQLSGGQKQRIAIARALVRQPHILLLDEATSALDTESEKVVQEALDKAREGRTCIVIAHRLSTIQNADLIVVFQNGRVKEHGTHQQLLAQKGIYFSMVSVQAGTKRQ

[2] = molecular target: T1, ATP-dependent translocase ABCB1; experiment: Inhibition of Pgp in multidrug-resistant human 2780AD cells assessed as calcein accumulation at 25 ug/mL relative to control; type: cell-based; parameters: scale not given: the % may be the effect or the level left; conditions: a2780 adr
[3] = Growth inhibition of human WI38 cells; type: cell-based; conditions: WI-38
WI-38 VA13 = experiment: Growth inhibition of human VA13 cells; type: functional, cell-based
HepG2 = experiment: Growth inhibition of human HepG2 cells; type: functional, cell-based
[4] = molecular target: T1, ATP-dependent translocase ABCB1; experiment: Inhibition of Pgp in multidrug-resistant human 2780AD cells assessed as vincristine accumulation at 0.1 ug/mL relative to control; type: cell-based; parameters: scale not given: the % may be the effect or the level left; conditions: a2780 adr
[5] = molecular target: T1, ATP-dependent translocase ABCB1; experiment: Inhibition of Pgp in multidrug-resistant human 2780AD cells assessed as calcein accumulation at 2.5 ug/mL relative to control; type: cell-based; parameters: scale not given: the % may be the effect or the level left; conditions: a2780 adr
[6] = molecular target: T1, ATP-dependent translocase ABCB1; experiment: Inhibition of Pgp in multidrug-resistant human 2780AD cells assessed as vincristine accumulation at 1.0 ug/mL relative to control; type: cell-based; parameters: scale not given: the % may be the effect or the level left; conditions: a2780 adr
[7] = molecular target: T1, ATP-dependent translocase ABCB1; experiment: Inhibition of Pgp in multidrug-resistant human 2780AD cells assessed as vincristine accumulation at 10 ug/mL relative to control; type: cell-based; parameters: scale not given: the % may be the effect or the level left; conditions: a2780 adr
[8] = molecular target: T1, ATP-dependent translocase ABCB1; experiment: Inhibition of Pgp in multidrug-resistant human 2780AD cells assessed as vincristine accumulation at 0.1 ug/mL relative to verapamil; type: cell-based; parameters: scale not given: the % may be the effect or the level left; conditions: a2780 adr
[9] = molecular target: T1, ATP-dependent translocase ABCB1; experiment: Inhibition of Pgp in multidrug-resistant human 2780AD cells assessed as vincristine accumulation at 1.0 ug/mL relative to verapamil; type: cell-based; parameters: scale not given: the % may be the effect or the level left; conditions: a2780 adr
[10] = molecular target: T1, ATP-dependent translocase ABCB1; experiment: Inhibition of Pgp in multidrug-resistant human 2780AD cells assessed as vincristine accumulation at 10 ug/mL relative to verapamil; type: cell-based; parameters: scale not given: the % may be the effect or the level left; conditions: a2780 adr
A2780 [11] = experiment: Cytotoxicity against human A2780 cells assessed as cell viability at 0.2 uM; type: functional; conditions: read-out: Activity
A2780 [12] = experiment: Cytotoxicity against human A2780 cells assessed as cell viability at 2 uM; type: functional; conditions: read-out: Activity
A2780 [13] = experiment: Cytotoxicity against human A2780 cells assessed as cell viability at 10 uM; type: functional; conditions: read-out: Activity
[14] = Cytotoxicity against multidrug-resistant human 2780AD cells assessed as cell viability at 0.2 uM; type: functional; conditions: A2780 ADR, read-out: Activity
[15] = Cytotoxicity against multidrug-resistant human 2780AD cells assessed as cell viability at 2 uM; type: functional; conditions: A2780 ADR, read-out: Activity
[16] = Cytotoxicity against multidrug-resistant human 2780AD cells assessed as cell viability at 10 uM; type: functional; conditions: A2780 ADR, read-out: Activity
A2780 [17] = experiment: Growth inhibition of human A2780 cells; type: functional, cell-based
[18] = Growth inhibition of multidrug-resistant human 2780AD cells; type: functional, cell-based; conditions: A2780 ADR

Work on `C=C1[C@@H](OC(C)=O)CC[C@@]2(C)C[C@H](OC(C)=O)C3=C(C)C[C@H](O)[C@@H]([C@@H](OC(C)=O)[C@H]12)C3(C)C` yielded an Activity [1] of 104%, an Activity [2] of 148% and an IC50 [3] of 133 µM. It also gave an IC50 (WI-38 VA13) of 80 µM, an IC50 (HepG2) of 216 µM and an Activity [4] of 102%. It also gave an Activity [5] of 86%, an Activity [6] of 147% and an Activity [7] of 242%. For the same compound, the Activity [8] was 94%, the Activity [9] was 79% and the Activity [10] was 53%. The viability at 0.2 µM (A2780 [11]) was 97%, the viability at 2 µM (A2780 [12]) was 95% and the viability at 10 µM (A2780 [13]) was 20%. For the same compound, the viability at 0.2 µM [14] was 101%, the viability at 2 µM [15] was 96% and the viability at 10 µM [16] was 77%.

In the case of `C=C1[C@@H](OC(C)=O)CC[C@@]2(C)C[C@H](O)C3=C(C)C[C@H](OC(=O)/C=C/c4ccccc4)[C@@H]([C@@H](OC(C)=O)[C@H]12)C3(C)C`, the Activity [1] is reported as 107%, the Activity [2] is reported as 190% and the IC50 [3] is reported as 13.5 µM. The IC50 (WI-38 VA13) was 37.4 µM, the IC50 (HepG2) was 15.7 µM and the Activity [4] was 121%. The Activity [5] was 132%, the Activity [6] was 272% and the Activity [7] was 527%. The Activity [8] was 111%, the Activity [9] was 146% and the Activity [10] was 116%. The viability at 0.2 µM (A2780 [11]) was 89%, the viability at 2 µM (A2780 [12]) was 74% and the viability at 10 µM (A2780 [13]) was 27%. The IC50 (A2780 [17]) was 6100 nM, the viability at 0.2 µM [14] was 105% and the viability at 2 µM [15] was 86%. The viability at 10 µM [16] was 38% and the IC50 [18] was 8 µM.

Compound `COc1cccc2c1C(=O)c1c(O)c3c(c(O)c1C2=O)C[C@@](O)(C(=O)CO)C[C@@H]3O[C@H]1C[C@H](N)[C@H](O)[C@H](C)O1` [DOXORUBICIN] has an IC50 (A2780 [17]) of 5.7 nM and an IC50 [18] of 0.298 µM.

Work on `CC(=O)O[C@H]1C(=O)[C@@]2(C)[C@H]([C@H](OC(=O)c3ccccc3)[C@]3(O)C[C@H](OC(=O)[C@H](O)[C@@H](NC(=O)c4ccccc4)c4ccccc4)C(C)=C1C3(C)C)[C@]1(OC(C)=O)CO[C@@H]1C[C@@H]2O` [PACLITAXEL] yielded an IC50 [18] of 183 µM.

Work on `CC[C@]1(O)C[C@H]2CN(CCc3c([nH]c4ccccc34)[C@@](C(=O)OC)(c3cc4c(cc3OC)N(C=O)[C@H]3[C@@](O)(C(=O)OC)[C@H](OC(C)=O)[C@]5(CC)C=CCN6CC[C@]43[C@@H]65)C2)C1` [VINCRISTINE] yielded an IC50 (A2780 [17]) of 3.1 nM and an IC50 [18] of 0.311 µM.
